Test results published in patent US20170253581A1, “SUBSTITUTED HETEROCYCLES AS c-MYC TARGETING AGENTS” (Northwestern University, priority 2016, published 2017).

Target: Myc/Max binding to DNA (Homo sapiens, UniProt P01106)
Experiment: Electrophoretic mobility shift assay (EMSA) of Myc/Max binding to DNA
Assay type: biochemical
Settings: EMSA; for remaining activity at 100 µM / Bound DNA (%) (100uM): 100 uM test compound; for remaining activity at 100 µM: read-out: Bound DNA (%) (100uM); for remaining activity at 50 µM: read-out: Bound DNA (%) (50uM)
Experimental: We also tested our best hit compound Min9 (NUCC-0176234) and newly synthesized analogs for effects of these compounds on Myc/Max binding to DNA in electrophoretic mobility shift assays (EMSAs). (See FIG. 5a and FIG. 5b). We expected the active compounds to impair Myc/Max binding to DNA. Several strucutural analogs of Min9 were tested over multiple doses for inhibiting Myc-DNA binding and we observed a dose-dependent inhibition. (See FIG. 5c).
Additional compounds were synthesized and tested in the EMSA assay at concentrations of 200 μM, 100 μM, and 50 μM.

Sequence of Myc/Max binding to DNA (P01106 whole entry): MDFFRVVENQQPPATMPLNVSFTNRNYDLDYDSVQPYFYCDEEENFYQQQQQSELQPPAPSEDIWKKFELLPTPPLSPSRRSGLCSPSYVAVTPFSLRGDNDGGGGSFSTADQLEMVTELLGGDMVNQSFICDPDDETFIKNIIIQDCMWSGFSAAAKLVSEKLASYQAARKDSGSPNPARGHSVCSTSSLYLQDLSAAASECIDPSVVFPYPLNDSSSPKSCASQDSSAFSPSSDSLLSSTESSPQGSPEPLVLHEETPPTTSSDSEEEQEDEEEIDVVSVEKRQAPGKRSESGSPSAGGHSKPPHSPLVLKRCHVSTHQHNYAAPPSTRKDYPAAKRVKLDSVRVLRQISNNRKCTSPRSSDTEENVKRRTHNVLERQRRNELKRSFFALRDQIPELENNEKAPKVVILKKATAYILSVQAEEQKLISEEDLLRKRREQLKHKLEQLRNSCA

| SMILES | remaining activity at 100 µM [%] | Bound DNA (%) (100uM) | remaining activity at 50 µM (50 uM test compound) [%] | Bound DNA (%) (50uM) (50 uM test compound) |
| --- | --- | --- | --- | --- |
| Cn1nc(-c2ccc(OCc3ccc(Cl)cc3)cc2O)c(-c2ccc(C#N)cc2)c1C(F)(F)F [compound 0198393] | 71 | – | – | – |
| NC(=O)c1ccc(-c2c(-c3ccc(OCc4ccc(Cl)cc4)cc3O)n[nH]c2C(F)(F)F)cc1 [compound 0198394] | 30 | – | – | – |
| CN/N=C(\C)c1ccc(-c2c(C(F)(F)F)nn(C)c2-c2ccc(OCc3ccc(Cl)cc3)cc2O)cc1 [compound 0198396] | 56 | – | – | – |
| CN/N=C(\C)c1ccc(-c2c(-c3ccc(OCc4ccc(Cl)cc4)cc3O)nn(C)c2C(F)(F)F)cc1 [compound 0198397] | 82 | – | – | – |
| Cn1nc(-c2ccc(OCc3ccc(Cl)cc3)cc2O)c(-c2cccc(C#N)c2)c1C(F)(F)F [compound 0198400] | 48 | – | – | – |
| NC(=O)c1cccc(-c2c(-c3ccc(OCc4ccc(Cl)cc4)cc3O)n[nH]c2C(F)(F)F)c1 [compound 0198401] | 77 | – | – | – |
| CN/N=C(\C)c1cccc(-c2c(C(F)(F)F)nn(C)c2-c2ccc(OCc3ccc(Cl)cc3)cc2O)c1 [compound 0198404] | 67 | – | – | – |
| Cn1nc(-c2ccc(OCc3ccc(Cl)cc3)cc2O)c(Br)c1C(F)(F)F [compound 0198408] | 136 | – | – | – |
| Cn1nc(C(F)(F)F)c(-c2ccccc2OC(F)(F)F)c1-c1ccc(OCc2ccc(Cl)cc2)cc1O [compound 0198410] | 44 | – | – | – |
| Cn1nc(C(F)(F)F)cc1-c1ccc(OCc2ccc(Cl)cc2)cc1O [compound 0198412] | 91 | – | – | – |
| Oc1cc(OCc2ccc(Cl)cc2)ccc1-c1n[nH]c(C(F)(F)F)c1Cc1ccccc1Cl [compound 0200490] | 99 | – | 97 | – |
| Oc1cc(Nc2ccc(Cl)cc2)ccc1-c1cc(C(F)(F)F)[nH]n1 [compound 0200491] | – | 0 | 73 | – |
| Oc1cc(NCc2ccc(Cl)cc2)ccc1-c1cc(C(F)(F)F)[nH]n1 [compound 0200493] | 42 | – | 92 | – |
| Cn1nc(-c2ccc(NCc3ccc(Cl)cc3)cc2O)cc1C(F)(F)F [compound 0200494] | 89 | – | 99 | – |
| Nc1ccc(-c2cc(C(F)(F)F)[nH]n2)c(O)c1 [compound 0200497] | 109 | – | 107 | – |
| Cn1nc(-c2ccc(N)cc2O)cc1C(F)(F)F [compound 0200498] | 101 | – | 100 | – |

| SMILES | remaining activity at 100 µM [%] | Bound DNA (%) (100uM) | remaining activity at 50 µM (50 uM test compound) [%] | Bound DNA (%) (50uM) (50 uM test compound) |
| --- | --- | --- | --- | --- |
| Oc1cc(OCc2ccc(Cl)cc2)ccc1-c1cc(C(F)(F)F)n(Cc2ccccc2)n1 [compound 0200499] | 100 | – | 109 | – |
| Oc1cc(OCc2ccc(Cl)cc2)ccc1-c1cc(C(F)(F)F)nc(-c2cccc(C(F)(F)F)c2)n1 [compound 0200500] | 109 | – | 100 | – |
| Oc1cc(OCc2ccc(Cl)cc2)ccc1-c1cc(C(F)(F)F)nc(-c2cc(C(F)(F)F)cc(C(F)(F)F)c2)n1 [compound 0200501] | 79 | – | 91 | – |
| Nc1nc(-c2ccc(OCc3ccc(Cl)cc3)cc2O)cc(C(F)(F)F)n1 [compound 0200502] | 94 | – | 64 | – |
| Cn1nc(-c2ccc(Nc3ccc(F)c(F)c3)cc2O)cc1C(F)(F)F [compound 0200560] | 56 | – | 91 | – |
| Oc1cc(Nc2ccccn2)ccc1-c1cc(C(F)(F)F)[nH]n1 [compound 0200565] | 112 | – | 112 | – |
| Cn1nc(-c2ccc(Nc3ccccn3)cc2O)cc1C(F)(F)F [compound 0200566] | 118 | – | 109 | – |
| CN1CCN(c2ccc(-c3cc(C(F)(F)F)[nH]n3)c(O)c2)CC1 [compound 0200567] | 115 | – | 117 | – |
| CN1CCN(c2ccc(-c3cc(C(F)(F)F)n(C)n3)c(O)c2)CC1 [compound 0200568] | 93 | – | 109 | – |
| N#Cc1cccc(-c2c(C(F)(F)F)n[nH]c2-c2cc(OCc3ccc(Cl)cc3)ccc2O)c1 [compound 0200571] | 72 | – | 87 | – |
| Cc1ccc(-c2c(C(F)(F)F)n[nH]c2-c2cc(OCc3ccc(Cl)cc3)ccc2O)cc1 [compound 0200572] | 78 | – | 85 | – |
| Oc1ccc(OCc2ccc(Cl)cc2)cc1-c1cc(C(F)(F)F)n[nH]1 [compound 0200573] | 102 | – | – | – |
| Oc1ccccc1-c1cc(C(F)(F)F)n[nH]1 [compound 0200574] | 107 | – | – | – |
| N#Cc1cc(-c2ccc(Nc3ccc(Cl)cc3)cc2O)n[nH]1 [compound 0200678] | 104 | – | – | – |
| Oc1cc(Nc2ccc(Cl)cc2)ccc1-c1cc(C(F)(F)F)[nH]n1 [compound 0200679] | – | 38 | – | 79 |
| CCc1ccc(Oc2c(-c3ccc(Nc4ccc(Cl)cc4)cc3O)n[nH]c2C(F)(F)F)cc1 [compound 0200680] | 40 | – | 96 | – |

More lines, now with the values ahead:

| remaining activity at 100 µM [%] | Bound DNA (%) (100uM) | remaining activity at 50 µM (50 uM test compound) [%] | Bound DNA (%) (50uM) (50 uM test compound) | SMILES |
| --- | --- | --- | --- | --- |
| 109 | – | – | – | C/C(=N\N)c1ccc(-c2c(-c3ccc(OCc4ccc(Cl)cc4)cc3O)n[nH]c2C(F)(F)F)cc1 [compound 0198395] |
| 3 | – | – | – | N#Cc1cccc(-c2c(-c3ccc(OCc4ccc(Cl)cc4)cc3O)n[nH]c2C(F)(F)F)c1 [compound 0198398] |
| 2 | – | – | – | Cn1nc(C(F)(F)F)c(-c2cccc(C#N)c2)c1-c1ccc(OCc2ccc(Cl)cc2)cc1O [compound 0198399] |
| 57 | – | – | – | Cn1nc(C(F)(F)F)c(-c2cccc(C(N)=O)c2)c1-c1ccc(OCc2ccc(Cl)cc2)cc1O [compound 0198402] |
| 44 | – | – | – | C/C(=N\N)c1cccc(-c2c(-c3ccc(OCc4ccc(Cl)cc4)cc3O)n[nH]c2C(F)(F)F)c1 [compound 0198403] |
| 89 | – | – | – | CN/N=C(\C)c1cccc(-c2c(-c3ccc(OCc4ccc(Cl)cc4)cc3O)nn(C)c2C(F)(F)F)c1 [compound 0198405] |
| 0 | – | – | – | CCc1ccc(Oc2c(-c3ccc(O)cc3O)n[nH]c2C(F)(F)F)cc1 [compound 0198406] |
| 13 | – | – | – | Cn1nc(C(F)(F)F)c(Br)c1-c1ccc(OCc2ccc(Cl)cc2)cc1O [compound 0198407] |
| 69 | – | – | – | Cn1nc(C(F)(F)F)c(-c2ccc(C(N)=O)cc2)c1-c1ccc(OCc2ccc(Cl)cc2)cc1O [compound 0198409] |
| – | 30 | – | – | CCc1ccc(Oc2c(-c3ccc(O)cc3O)nn(C)c2C(F)(F)F)cc1 [compound 0198411] |
| 100 | – | 99 | – | CCOC(=O)c1[nH]nc(-c2ccc(OCc3ccc(Cl)cc3)cc2O)c1-c1ccc(C#N)cc1 [compound 0200489] |
| 24 | – | 92 | – | Cn1nc(-c2ccc(Nc3ccc(Cl)cc3)cc2O)cc1C(F)(F)F [compound 0200492] |
| 8 | – | 86 | – | Oc1ccc(-c2n[nH]c(C(F)(F)F)c2-c2cc(C(F)(F)F)cc(C(F)(F)F)c2)c(O)c1 [compound 0200495] |
| 81 | – | 98 | – | COc1ccc(-c2c(-c3ccc(O)cc3O)n[nH]c2C(F)(F)F)cc1OC [compound 0200496] |
| 91 | – | 89 | – | Oc1cc(OCc2ccc(Cl)cc2)ccc1-c1cc(C(F)(F)F)nc(-c2ccc(F)cc2)n1 [compound 0200503] |
| 53 | – | 46 | – | N#Cc1cccc(-c2c(-c3ccc(OCc4ccc(Cl)cc4)cc3O)n[nH]c2C(N)=O)c1 [compound 0200557] |
| 9 | – | 20 | – | Cn1nc(-c2ccc(OCc3ccc(Cl)cc3)cc2O)c(-c2cccc(C#N)c2)c1C(N)=O [compound 0200558] |
| 39 | – | 76 | – | Oc1cc(Nc2ccc(F)c(F)c2)ccc1-c1cc(C(F)(F)F)[nH]n1 [compound 0200559] |
| 59 | – | 91 | – | Oc1cc(Nc2ccc3c(c2)OCO3)ccc1-c1cc(C(F)(F)F)[nH]n1 [compound 0200561] |
| 77 | – | 101 | – | Cn1nc(-c2ccc(Nc3ccc4c(c3)OCO4)cc2O)cc1C(F)(F)F [compound 0200562] |
| 92 | – | 101 | – | NC(=O)c1ccc(Nc2ccc(-c3cc(C(F)(F)F)[nH]n3)c(O)c2)cc1 [compound 0200563] |
| 93 | – | 103 | – | Cn1nc(-c2ccc(Nc3ccc(C(N)=O)cc3)cc2O)cc1C(F)(F)F [compound 0200564] |
| 91 | – | 89 | – | Oc1cc(Nc2ccc(-n3ccnc3)cc2)ccc1-c1cc(C(F)(F)F)[nH]n1 [compound 0200569] |
| 83 | – | 85 | – | Oc1cccc(OCc2ccc(Cl)cc2)c1-c1cc(C(F)(F)F)n[nH]1 [compound 0200570] |
| 13 | – | – | – | Oc1ccc(OCc2ccc(Cl)cc2)cc1-c1[nH]nc(C(F)(F)F)c1-c1ccc(F)cc1 [compound 0200575] |
| 3 | – | – | – | Oc1ccc(OCc2ccc(Cl)cc2)cc1-c1[nH]nc(C(F)(F)F)c1-c1ccccc1Cl [compound 0200576] |
| 100 | – | – | – | FC(F)(F)c1cc2n(n1)-c1ccccc1Oc1cc(OCc3ccc(Cl)cc3)ccc1-2 [compound 0200577] |
| 102 | – | – | – | NC(=O)c1cc(-c2ccc(Nc3ccc(Cl)cc3)cc2O)n[nH]1 [compound 0200677] |
